Measurements taken from ChEMBL document CHEMBL5608200, “Design, synthesis, and evaluation of antitumor activity of 2-arylmethoxy-4-(2-fluoromethyl-biphenyl-3-ylmethoxy) benzylamine derivatives as PD-1/PD-l1 inhibitors” (Eur J Med Chem, 2024).

Legend:
[1] = molecular target: Programmed cell death protein 1/Programmed cell death 1 ligand 1 (Homo sapiens, UniProt Q9NZQ7); experiment: Inhibition of human PD-1 to PD-L1 protein-protein interaction by homogeneous-time resolved fluorescence assay; type: protein-complex assay
[2] = molecular target: Programmed cell death protein 1/Programmed cell death 1 ligand 1 (Homo sapiens) (UniProt Q15116+Q9NZQ7); details: HEK293T, dose 100.0 nM, time 30.0 min
[3] = Clearance in Sprague-Dawley rat at 10 mg/kg, iv measured upto 48 hrs by LC-MS/MS analysis; type: ADME, organism-based; details: in vivo
[4] = Apparent volume of distribution in Sprague-Dawley rat at 10 mg/kg, iv measured upto 48 hrs by LC-MS/MS analysis; type: ADME, organism-based; details: in vivo
[5] = AUC(0 to t) in Sprague-Dawley rat at 50 mg/kg, IG measured upto 48 hrs by LC-MS/MS analysis; type: ADME, organism-based; details: in vivo, po
[6] = Cytotoxicity against human PBMCs at 1 to 4 uM by CCK-8 assay; type: toxicity, cell-based; details: pbmc, dose 1-4 µM
[7] = AUC(0 to infinity) in Sprague-Dawley rat at 10 mg/kg, iv measured upto 48 hrs by LC-MS/MS analysis; type: ADME, organism-based; details: in vivo
[8] = Half-life in Sprague-Dawley rat at 10 mg/kg, iv measured upto 48 hrs by LC-MS/MS analysis; type: ADME, organism-based; details: in vivo
[9] = Tmax in Sprague-Dawley rat at 10 mg/kg, iv measured upto 48 hrs by LC-MS/MS analysis; type: ADME, organism-based; details: in vivo
MC-38 = experiment: Antitumor activity against mouse MC38 cells expressing hPD-L1 implanted in PD-1/PD-L1 humanized C57BL/6 mouse assessed as tumor growth inhibition at 50 mg/kg, IG; type: functional; details: MC-38, po, read-out: TGI
[10] = Oral bioavilability in Sprague-Dawley rat at 50 mg/kg measured upto 48 hrs by LC-MS/MS analysis; type: ADME, organism-based; details: in vivo
[11] = Apparent volume of distribution in Sprague-Dawley rat at 50 mg/kg, IG measured upto 48 hrs by LC-MS/MS analysis; type: ADME, organism-based; details: in vivo, po
[12] = Cmax in Sprague-Dawley rat at 50 mg/kg, IG measured upto 48 hrs by LC-MS/MS analysis; type: ADME, organism-based; details: in vivo, po
[13] = AUC(0 to infinity) in Sprague-Dawley rat at 50 mg/kg, IG measured upto 48 hrs by LC-MS/MS analysis; type: ADME, organism-based; details: in vivo, po
[14] = Half-life in Sprague-Dawley rat at 50 mg/kg, IG measured upto 48 hrs by LC-MS/MS analysis; type: ADME, organism-based; details: in vivo, po
[15] = Tmax in Sprague-Dawley rat at 50 mg/kg, IG measured upto 48 hrs by LC-MS/MS analysis; type: ADME, organism-based; details: in vivo, po
[16] = AUC(0 to t) in Sprague-Dawley rat at 10 mg/kg, iv measured upto 48 hrs by LC-MS/MS analysis; type: ADME, organism-based; details: in vivo
[17] = Cmax in Sprague-Dawley rat at 10 mg/kg, iv measured upto 48 hrs by LC-MS/MS analysis; type: ADME, organism-based; details: in vivo
[18] = Clearance in Sprague-Dawley rat at 50 mg/kg, IG measured upto 48 hrs by LC-MS/MS analysis; type: ADME, organism-based; details: in vivo, po

Sequence of Programmed cell death protein 1/Programmed cell death 1 ligand 1 (Q15116 whole entry): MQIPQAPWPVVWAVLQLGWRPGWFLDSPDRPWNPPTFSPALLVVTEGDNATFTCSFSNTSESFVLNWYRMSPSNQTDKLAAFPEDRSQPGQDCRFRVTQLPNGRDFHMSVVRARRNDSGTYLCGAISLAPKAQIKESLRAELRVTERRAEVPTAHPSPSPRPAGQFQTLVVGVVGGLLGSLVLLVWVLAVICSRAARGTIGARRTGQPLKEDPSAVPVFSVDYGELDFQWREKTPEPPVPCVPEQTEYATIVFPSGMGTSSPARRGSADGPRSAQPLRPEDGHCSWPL
Sequence of Programmed cell death protein 1/Programmed cell death 1 ligand 1 (Q9NZQ7 whole entry): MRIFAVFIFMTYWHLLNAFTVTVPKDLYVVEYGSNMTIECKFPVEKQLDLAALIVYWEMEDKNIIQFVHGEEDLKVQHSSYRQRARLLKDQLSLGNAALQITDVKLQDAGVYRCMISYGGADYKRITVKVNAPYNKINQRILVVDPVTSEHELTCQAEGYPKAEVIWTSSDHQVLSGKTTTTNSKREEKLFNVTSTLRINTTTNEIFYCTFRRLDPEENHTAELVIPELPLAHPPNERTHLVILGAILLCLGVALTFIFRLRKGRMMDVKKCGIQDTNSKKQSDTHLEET

| SMILES | IC50 [1] [nM] | other results |
| --- | --- | --- |
| N#Cc1cncc(COc2cc(OCc3cccc(-c4cc(F)ccc4F)c3CF)ccc2CNCCO)c1 | 42 |  |
| CC(=O)NCCNCc1ccc(OCc2cccc(-c3ccc4c(c3)OCCO4)c2C(F)F)cc1OCc1cncc(C#N)c1 | 17.2 | inhibition [2]: 18.4% |
| CC(=O)NCCNCc1ccc(OCc2cccc(-c3ccccc3F)c2CF)cc1OCc1cccc(C#N)c1 | 100 |  |
| CC(=O)NCCNCc1ccc(OCc2cccc(-c3ccccc3F)c2C(F)F)cc1OCc1cncc(C#N)c1 | 100 |  |
| N#Cc1cncc(COc2cc(OCc3cccc(-c4ccccc4F)c3CF)ccc2CN2CCC[C@H]2C(=O)O)c1 | 6.9 | inhibition [2]: 15.4% |
| N#Cc1cncc(COc2cc(OCc3cccc(-c4ccc5c(c4)OCCO5)c3C(F)F)ccc2CNCC(O)CO)c1 (stereo not drawn) | 9.5 | inhibition [2]: 17% |
| COc1nc(OCc2cccc(-c3ccccc3)c2C)ccc1CNCCNC(C)=O |  | CL [3]: 19.2 mL/min/kg; Vz [4]: 12.46 L/kg; AUC(0-t) at 48 h [5]: 16800 ng·h/mL; Activity [6]: Non-Toxic; AUC(0-inf) [7]: 8710 ng·h/mL; t1/2 [8]: 1.94 h; Tmax [9]: 7.2 min; inhibition in vivo at 50 mg/kg (MC-38): 44.6%; inhibition [2]: 34.6%; bioavailability [10]: 39.1%; Vz [11]: 56.85 L/kg; Cmax [12]: 5730 ng/mL; AUC(0-inf) [13]: 16900 ng·h/mL; t1/2 [14]: 3.13 h; Tmax [15]: 2.1 h; AUC(0-t) at 48 h [16]: 8600 ng·h/mL; Cmax [17]: 3350 ng/mL; CL [18]: 49.2 mL/min/kg |
| N#Cc1cncc(COc2cc(OCc3cccc(-c4ccc5c(c4)OCCO5)c3CF)ccc2CN2CCC(C(=O)O)C2)c1 (stereo not drawn) | 14.9 | inhibition [2]: 18.4% |
| N#Cc1cncc(COc2cc(OCc3cccc(-c4ccc5c(c4)OCCO5)c3CF)ccc2CNCC(=O)O)c1 | 100 |  |
| N#Cc1cncc(COc2cc(OCc3cccc(-c4ccc5c(c4)OCCO5)c3CF)ccc2CN2CCCCC2C(=O)O)c1 (stereo not drawn) | 100 |  |
| N#Cc1cncc(COc2cc(OCc3cccc(-c4ccc5c(c4)OCCO5)c3C(F)F)ccc2CN2CCC[C@H]2C(=O)O)c1 | 19.4 | inhibition [2]: 21.7% |
| N#Cc1cncc(COc2cc(OCc3cccc(-c4ccccc4F)c3C(F)F)ccc2CN2CCC[C@H]2C(=O)O)c1 | 120 |  |
| N#Cc1cncc(COc2cc(OCc3cccc(-c4ccccc4)c3C(F)(F)F)ccc2CN[C@@H](CO)C(=O)O)c1 | 58.6 |  |
| N#Cc1cncc(COc2cc(OCc3cccc(-c4ccccc4F)c3CF)ccc2CN2CCCCC2C(=O)O)c1 (stereo not drawn) | 27 |  |
| N#Cc1cncc(COc2cc(OCc3cccc(-c4ccccc4F)c3CF)ccc2CN2CCC(C(=O)O)C2)c1 (stereo not drawn) | 25.2 |  |
| N#Cc1cncc(COc2cc(OCc3cccc(-c4ccccc4F)c3C(F)F)ccc2CN[C@@H](CO)C(=O)O)c1 | 16.9 |  |
| N#Cc1cccc(COc2cc(OCc3cccc(-c4ccccc4F)c3CF)ccc2CN2CCC[C@H]2C(=O)O)c1 | 10 |  |
| CN(C)CCNCc1ccc(OCc2cccc(-c3ccc4c(c3)OCCO4)c2C(F)F)cc1OCc1cncc(C#N)c1 | 29.5 |  |
| CC(=O)NCCNCc1ccc(OCc2cccc(-c3ccc4c(c3)OCCO4)c2CF)cc1OCc1cncc(C#N)c1 | 24.9 |  |

| SMILES | IC50 [1] [nM] | other results |
| --- | --- | --- |
| N#Cc1cncc(COc2cc(OCc3cccc(-c4ccccc4F)c3CF)ccc2CN2CC(C(=O)O)C2)c1 | 18.8 | inhibition [2]: 20.5% |
| CC(=O)NCCNCc1ccc(OCc2cccc(-c3ccccc3F)c2CF)cc1OCc1cncc(C#N)c1 | 31.4 |  |
| N#Cc1cccc(COc2cc(OCc3cccc(-c4ccccc4F)c3C(F)F)ccc2CN[C@@H](CO)C(=O)O)c1 | 100 |  |
| N#Cc1cncc(COc2cc(OCc3cccc(-c4ccccc4F)c3CF)ccc2CN[C@H](CO)C(=O)O)c1 | 10 |  |
| CC(=O)NCCNCc1ccc(OCc2cccc(-c3cc(F)ccc3F)c2CF)cc1OCc1cncc(C#N)c1 | 100 |  |
| CN(C)CCNCc1ccc(OCc2cccc(-c3ccc4c(c3)OCCO4)c2C(F)F)cc1OCc1cccnc1 | 100 |  |
| N#Cc1cncc(COc2cc(OCc3cccc(-c4ccccc4)c3C(F)(F)F)ccc2CNCCO)c1 | 93.8 |  |
| N#Cc1cncc(COc2cc(OCc3cccc(-c4ccccc4F)c3C(F)F)ccc2CNCCO)c1 | 41.9 |  |
| N#Cc1cncc(COc2cc(OCc3cccc(-c4cc(F)ccc4F)c3CF)ccc2CN[C@@H](CO)C(=O)O)c1 | 20.9 |  |
| N#Cc1cncc(COc2cc(OCc3cccc(-c4ccccc4F)c3C(F)F)ccc2CNCC(=O)O)c1 | 154 |  |
| N#Cc1cccc(COc2cc(OCc3cccc(-c4ccccc4F)c3CF)ccc2CNCCO)c1 | 100 |  |
| N#Cc1cccc(COc2cc(OCc3cccc(-c4ccccc4F)c3C(F)F)ccc2CNCCO)c1 | 100 |  |
| N#Cc1cncc(COc2cc(OCc3cccc(-c4ccc5c(c4)OCCO5)c3CF)ccc2CN[C@@H](CO)C(=O)O)c1 | 19.7 | inhibition [2]: 22% |
| N#Cc1cncc(COc2cc(OCc3cccc(-c4ccccc4F)c3CF)ccc2CN2CCC(O)C2)c1 (stereo not drawn) | 55.8 |  |
| N#Cc1cncc(COc2cc(OCc3cccc(-c4ccccc4F)c3CF)ccc2CNCCO)c1 | 24.9 |  |
| N#Cc1cncc(COc2cc(OCc3cccc(-c4ccccc4F)c3CF)ccc2CNCC(=O)O)c1 | 28.4 |  |
| N#Cc1cncc(COc2cc(OCc3cccc(-c4ccccc4F)c3CF)ccc2CN[C@@H](CO)C(=O)O)c1 | 12.7 |  |
| N#Cc1cncc(COc2cc(OCc3cccc(-c4ccc5c(c4)OCCO5)c3CF)ccc2CNCCO)c1 | 11.9 | inhibition [2]: 17.3% |
| OCC(O)CNCc1ccc(OCc2cccc(-c3ccc4c(c3)OCCO4)c2C(F)F)cc1OCc1cccnc1 (stereo not drawn) | 67.5 |  |
